Earlier results on one compound are cited in patent US11911514B2, “Extended-release pharmaceutical composition containing lacosamide” (WHAN IN Pharmaceutical Company, priority 2018, dated 2024).

This data set concerns patients with epilepsy. The conditions noted are these: taking 400 mg.

For `COC[C@@H](NC(C)=O)C(=O)NCc1ccccc1` [lacosamide], the “Number of patients with seizures reduced by more than 50%” value is recorded as 38-49%.
